Assay [1] can be described thus: inhibitors of intracellular T. cruzi replication, confirmation, NIH3T3 host cells, beta-gal luminescence (AID 2044).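 Note: intracellular parasites grown in NIH/3T3 mouse fibroblasts as host cells; luminescent beta-galactosidase reporter signal from transgenic T. cruzi replicating inside host cells; inhibitors lower the luminescence signal.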 It is filed as functional, cell-based.
For assay [2], the target named is T1, Ubiquitin-conjugating enzyme E2 N (Homo sapiens, UniProt P61088).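 Note: Dose-response confirmation in a TR-FRET assay detecting UBC13-driven polyubiquitin chain formation, inhibition measured.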
T1 sequence (P61088 whole entry): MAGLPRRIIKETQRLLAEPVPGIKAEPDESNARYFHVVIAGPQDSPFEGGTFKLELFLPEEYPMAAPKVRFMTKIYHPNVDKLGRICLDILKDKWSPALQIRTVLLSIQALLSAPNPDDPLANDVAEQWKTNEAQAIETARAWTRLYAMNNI
It is filed as functional.

A short description of assay [3]: NIH-3T3 fibroblast cytotoxicity, dose response, cytotoxicity control, cell-based, fluorescence, Alamar Blue, secondary assay (AID 2327).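 Note: NIH-3T3 mouse fibroblasts cultured with fluconazole at 8 µg/mL.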 In kind it is functional. (In general: Resazurin is reduced to fluorescent resorufin, in cell work by metabolically active cells.)
Assay [4] is described as follows: cells. In kind it is functional, cell-based.
Assay [5] can be described thus: cytotoxicity toward NIH3T3 fibroblasts, dose response, counter-screen, cell-based, ATP luminescence, mouse fibroblasts (AID 2010).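 Note: cells exposed to compound for about 90 hours before reading.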 It is filed as functional. In general terms: The purpose of a counterscreen is to sort out artefacts and off-target activity.
Assay [6] is described as follows: cells. In kind it is functional, cell-based. The source holds these as a separate data set.
Assay [7] concerns the target Nonstructural protein 1 (Influenza A virus, UniProt Q194T2). In kind it is functional, Influenza A virus (A/California/07/2009(H1N1)).
A short description of assay [8]: C. albicans growth with fluconazole, confirmation, fluorescence, retest (AID 2467). In kind it is functional, cell-based.
Assay [9] addresses FAD-linked sulfhydryl oxidase ALR (Homo sapiens, UniProt P55789). In words: inhibitors of human ALR sulfhydryl oxidase, dose response, biochemical, H2O2 detection, luminescence, cherry-pick (AID 493248).
Assay [10] is described as follows: Luminescence Cell-Based Dose Confirmation HTS to Identify Activators of 5'UTR Stem-Loop Driven Alpha-Synuclein mRNA Translation in H4 Neuroglioblastoma Cells. [Related pubchem assays: 1829 (Project Summary), 1814 (Primary HTS)]. It is filed as functional.
Assay [11] can be described thus: Luminescence Cell-Based Dose Response HTS to Identify Activators of Luciferase Translation or Activity in H4 […] Cells. [Related pubchem assays: 1829 (Project Summary), 1814 (Primary HTS)]. In kind it is functional.
The subject of assay [12] is H4. The experiment in a line: Luminescence Cell-Based Dose Response HTS to Identify Activators of 5'UTR Stem-Loop Driven Prion Protein mRNA Translation in H4 Neuroglioblastoma Cells. [Related pubchem assays: 1829 (Project Summary), 1814 (Primary HTS)]. It is filed as functional. Conditions: Homo sapiens.
Assay [13] relates to BJ. In words: cytotoxicity toward BJ-TERT-LT-ST fibroblasts, dose response, cell-based, RAS-independent, luminescence (AID 1935).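 Note: BJ fibroblasts immortalized with TERT plus LT and ST oncogenes.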 It is filed as functional. Conditions: Homo sapiens.
A short description of assay [14]: cytotoxicity toward DRD oncogenic fibroblasts, dose response, cell-based, non-viral oncogenic, luminescence (AID 1934). In kind it is functional. Conditions: Homo sapiens.
In assay [15] the test system is BJ. In words: cytotoxicity toward BJ-TERT fibroblasts, dose response, cell-based, RAS-independent, luminescence (AID 1933). Conditions: Homo sapiens. In kind it is functional.
Assay [16] has as its system BJ. The experiment in a line: cells. It is filed as functional, cell-based. Conditions: Homo sapiens.
Assay [17] has as its system Vero. The experiment in a line: cells. In kind it is functional. Conditions: Chlorocebus sabaeus.
The target in assay [18] is T2, Histone-lysine N-methyltransferase NSD2 (Homo sapiens, UniProt O96028).
T2 sequence (O96028 whole entry): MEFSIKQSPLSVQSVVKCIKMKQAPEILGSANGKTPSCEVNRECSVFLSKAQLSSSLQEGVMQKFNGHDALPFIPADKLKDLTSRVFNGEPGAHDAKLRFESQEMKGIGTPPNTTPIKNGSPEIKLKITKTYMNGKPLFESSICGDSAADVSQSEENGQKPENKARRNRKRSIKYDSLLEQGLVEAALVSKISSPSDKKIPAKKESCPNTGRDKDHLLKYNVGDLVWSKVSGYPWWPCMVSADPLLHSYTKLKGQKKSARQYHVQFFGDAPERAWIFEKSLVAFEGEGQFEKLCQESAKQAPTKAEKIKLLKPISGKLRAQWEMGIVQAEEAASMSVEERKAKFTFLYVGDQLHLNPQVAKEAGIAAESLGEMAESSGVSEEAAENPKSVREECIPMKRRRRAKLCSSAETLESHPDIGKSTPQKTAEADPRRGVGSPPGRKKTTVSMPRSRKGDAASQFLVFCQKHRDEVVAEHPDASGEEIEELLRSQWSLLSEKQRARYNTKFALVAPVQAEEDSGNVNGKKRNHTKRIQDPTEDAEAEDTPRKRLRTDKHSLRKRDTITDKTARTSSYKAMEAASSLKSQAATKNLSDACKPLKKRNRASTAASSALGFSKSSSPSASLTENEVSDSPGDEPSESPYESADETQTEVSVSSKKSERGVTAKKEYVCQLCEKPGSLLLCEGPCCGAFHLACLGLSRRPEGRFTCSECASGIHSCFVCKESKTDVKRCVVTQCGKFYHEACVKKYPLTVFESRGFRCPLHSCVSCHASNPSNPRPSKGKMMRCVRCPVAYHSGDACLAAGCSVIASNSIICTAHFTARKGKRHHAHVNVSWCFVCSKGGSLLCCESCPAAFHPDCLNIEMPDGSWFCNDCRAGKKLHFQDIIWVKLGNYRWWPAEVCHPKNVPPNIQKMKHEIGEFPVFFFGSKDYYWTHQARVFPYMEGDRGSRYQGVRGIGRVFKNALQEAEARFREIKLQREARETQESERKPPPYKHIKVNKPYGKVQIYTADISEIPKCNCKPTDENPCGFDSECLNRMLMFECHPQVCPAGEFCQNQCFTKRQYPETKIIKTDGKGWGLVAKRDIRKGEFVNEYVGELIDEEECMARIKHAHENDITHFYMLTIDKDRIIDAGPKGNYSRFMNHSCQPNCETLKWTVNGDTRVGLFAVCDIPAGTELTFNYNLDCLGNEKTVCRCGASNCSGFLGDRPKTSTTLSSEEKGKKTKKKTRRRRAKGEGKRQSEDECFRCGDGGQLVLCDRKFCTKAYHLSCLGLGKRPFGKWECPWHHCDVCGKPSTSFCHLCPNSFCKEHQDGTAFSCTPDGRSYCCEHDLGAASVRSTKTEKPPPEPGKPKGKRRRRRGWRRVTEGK
In kind it is biochemical.

For assay [19], the target named is Genome polyprotein (dengue virus type 2, UniProt P29990). In words: Dengue-2 NS5 methyltransferase inhibitors, primary screen, biochemical, confirmation dose response (AID 588689). It is filed as functional.
Assay [20] can be described thus: Luminescence Cell-Based Dose Retest to Confirm Inhibitors of Cancer Stem Cells. [Related pubchem assays (depositor defined):AID2717, AID2721]. Conditions: Homo sapiens. In kind it is functional.
Assay [21] deals with T3, Polyadenylate-binding protein 1 (Homo sapiens, UniProt P11940). The experiment in a line: PABP1 MLLE–PAM2 interaction inhibitors, dose response, miRNA deadenylation inhibitor project, biochemical, fluorescence polarization, Cy5-PAM2 peptide, secondary (AID 602260). It is filed as functional. Conditions: read-out: IC50_Mean. (Fluorescence polarisation rises when a labelled molecule tumbles more slowly, as on binding a larger partner.)

Assay [22] concerns the target T3, Polyadenylate-binding protein 1. The experiment in a line: PABP1 MLLE–PAM2 binding inhibitor potency, dose response, biochemical, fluorescence polarization, FITC-PAM2 peptide (AID 602259). Conditions: read-out: IC50_Mean. It is filed as functional.
In assay [23] the target is T4, Heat shock factor protein 1 (Mus musculus, UniProt P38532).
T4 sequence (P38532 whole entry): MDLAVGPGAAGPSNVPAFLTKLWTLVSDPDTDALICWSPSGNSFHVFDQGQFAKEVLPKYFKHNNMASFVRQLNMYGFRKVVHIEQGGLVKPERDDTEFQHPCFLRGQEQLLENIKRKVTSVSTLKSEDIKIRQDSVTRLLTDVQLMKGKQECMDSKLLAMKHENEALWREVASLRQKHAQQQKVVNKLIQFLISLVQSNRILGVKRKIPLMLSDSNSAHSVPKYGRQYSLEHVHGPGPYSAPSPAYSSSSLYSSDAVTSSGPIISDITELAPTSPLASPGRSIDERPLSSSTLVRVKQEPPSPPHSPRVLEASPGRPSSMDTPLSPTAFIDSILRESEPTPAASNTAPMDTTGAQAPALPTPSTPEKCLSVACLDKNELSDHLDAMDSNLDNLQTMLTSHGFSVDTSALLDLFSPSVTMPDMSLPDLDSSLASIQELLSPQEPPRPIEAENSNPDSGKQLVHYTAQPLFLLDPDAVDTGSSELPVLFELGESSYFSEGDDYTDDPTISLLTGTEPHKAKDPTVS
The experiment in a line: HSF1 potentiators in luciferase reporter cells, confirmation, cell-based, NIH3T3, luminescence, dose retest (AID 435004).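 Note: stress induced by proteasome inhibitor MG132 added 30 min after compound; luciferase reporter driven by HSF1 response element in NIH3T3 cells; actives raise luminescence as potentiators of the MG132 stress response.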 In kind it is functional.

Calls of active or inactive are those of the source. Cut-off read from the data, not from the text of the source, for most assays here: actives have a measured EC50 and inactives only a lower limit.

Genome polyprotein, sequence (P29990 2492-3391 limits assumed): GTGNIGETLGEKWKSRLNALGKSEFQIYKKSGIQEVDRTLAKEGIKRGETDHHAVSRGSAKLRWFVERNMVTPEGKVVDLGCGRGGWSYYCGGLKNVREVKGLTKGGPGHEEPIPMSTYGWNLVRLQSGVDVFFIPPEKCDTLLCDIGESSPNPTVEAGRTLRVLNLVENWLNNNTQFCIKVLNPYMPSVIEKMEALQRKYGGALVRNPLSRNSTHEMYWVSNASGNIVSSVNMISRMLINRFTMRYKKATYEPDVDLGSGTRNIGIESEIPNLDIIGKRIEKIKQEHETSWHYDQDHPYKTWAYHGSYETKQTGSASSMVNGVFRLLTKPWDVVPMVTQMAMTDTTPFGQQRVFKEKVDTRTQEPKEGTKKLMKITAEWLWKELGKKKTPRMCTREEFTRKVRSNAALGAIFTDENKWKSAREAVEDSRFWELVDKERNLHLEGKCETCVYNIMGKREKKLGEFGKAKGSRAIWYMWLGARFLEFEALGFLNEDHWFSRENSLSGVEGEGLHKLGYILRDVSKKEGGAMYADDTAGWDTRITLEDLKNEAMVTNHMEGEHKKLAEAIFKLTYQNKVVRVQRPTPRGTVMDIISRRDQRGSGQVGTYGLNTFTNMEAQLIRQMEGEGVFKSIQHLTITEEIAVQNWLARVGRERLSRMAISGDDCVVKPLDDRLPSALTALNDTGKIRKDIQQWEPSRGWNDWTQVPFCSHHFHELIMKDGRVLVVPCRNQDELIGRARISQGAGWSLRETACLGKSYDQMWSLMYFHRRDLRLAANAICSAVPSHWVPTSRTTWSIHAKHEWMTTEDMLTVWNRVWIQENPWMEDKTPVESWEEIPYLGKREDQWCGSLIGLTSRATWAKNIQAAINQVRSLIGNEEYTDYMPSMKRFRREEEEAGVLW
FAD-linked sulfhydryl oxidase ALR, sequence (P55789 whole entry): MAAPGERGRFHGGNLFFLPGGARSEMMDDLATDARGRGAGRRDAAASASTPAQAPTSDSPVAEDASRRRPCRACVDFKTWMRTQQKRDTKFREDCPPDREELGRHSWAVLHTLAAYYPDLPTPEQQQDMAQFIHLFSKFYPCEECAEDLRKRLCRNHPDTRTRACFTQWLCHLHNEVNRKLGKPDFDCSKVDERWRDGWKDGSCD
Nonstructural protein 1, sequence (Q194T2 whole entry): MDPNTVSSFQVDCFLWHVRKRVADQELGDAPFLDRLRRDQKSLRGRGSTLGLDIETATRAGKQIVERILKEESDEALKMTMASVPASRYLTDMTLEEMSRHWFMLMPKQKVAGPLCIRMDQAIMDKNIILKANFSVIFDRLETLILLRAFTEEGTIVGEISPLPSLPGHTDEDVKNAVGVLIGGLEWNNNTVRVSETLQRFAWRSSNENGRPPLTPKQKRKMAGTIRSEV
T3 sequence (P11940 whole entry): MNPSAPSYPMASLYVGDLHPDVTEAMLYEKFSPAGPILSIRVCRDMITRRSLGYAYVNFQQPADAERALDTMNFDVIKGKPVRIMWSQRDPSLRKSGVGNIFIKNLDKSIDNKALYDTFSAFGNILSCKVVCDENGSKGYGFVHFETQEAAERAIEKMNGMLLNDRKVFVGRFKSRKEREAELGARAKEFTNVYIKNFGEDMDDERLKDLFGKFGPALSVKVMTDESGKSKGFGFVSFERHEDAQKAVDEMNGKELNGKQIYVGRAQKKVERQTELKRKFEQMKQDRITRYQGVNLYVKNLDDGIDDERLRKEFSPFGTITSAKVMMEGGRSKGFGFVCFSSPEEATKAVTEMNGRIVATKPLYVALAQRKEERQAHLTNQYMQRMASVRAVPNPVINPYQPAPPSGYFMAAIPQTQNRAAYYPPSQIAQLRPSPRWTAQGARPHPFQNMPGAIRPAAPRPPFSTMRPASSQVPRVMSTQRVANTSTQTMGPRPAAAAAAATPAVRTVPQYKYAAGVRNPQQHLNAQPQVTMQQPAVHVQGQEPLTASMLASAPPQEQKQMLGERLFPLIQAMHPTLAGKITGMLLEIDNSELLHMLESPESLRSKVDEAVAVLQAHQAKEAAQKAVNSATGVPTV

Take `Oc1ccc(CN2CCN(Cc3ccccc3)CC2)c2cccnc12`: the half-maximal effective concentration (EC50) (commonly the concentration at which the effect is half-maximal) in assay [1] is 2.03 µM (active); in [3], > 160 µM (inconclusive); in assay [4], > 350 µM (not active); in assay [5] it was > 60 µM (not active); in [6] it was > 350 µM (not active); in assay [8], > 38 µM (not active). The figures for the IC50 in assay [2] and in assay [7] were > 20 µM (inactive) and 11.2 µM (active), respectively.

For `COc1ccc(NC(=O)C[S+]([O-])CC(=O)Nc2cc(Cl)ccc2OC)cc1` (stereo not given), the IC50 in assay [2] was > 20 µM (inactive).

`CC(=O)Nc1ccc2c(c1)nc1n2CCSC1`: the half-maximal activity concentration (AC50) (usually the concentration at which the activity in the assay is half-maximal) in assay [9] is 0.34 µM (active).

With `N#CC1=C2Sc3ccccc3N2CCCC1=O`, the 50% effective concentration (EC50) is 0.318 µM (active) in assay [10], 59 µM (active) in assay [11] and 19.7 µM (active) in [12].

As for `COc1ccc(-n2c(SCC(=O)c3c(N)n(C)c(=O)n(C)c3=O)nc3ccccc32)cc1`, the EC50 in assay [13] was > 150 µM (inconclusive); in assay [14], > 150 µM (not active); in assay [15], > 150 µM (not active); in [16] it was > 150 µM (not active).

Take `COc1ccc(C(=O)Cn2c(C(C)=O)nc3ccccc32)cc1`: the CC50 (commonly the concentration that lowers cell viability or growth by half) in [17] was 11.5 µM (active).

`Cc1nc(Cl)sc1C(=O)Nc1cc(F)cc(F)c1`: in assay [17], the CC50 was > 25 µM (active).

On to `Cc1nc(C(=O)N2CCCC(Nc3ccc(C)c(C)c3)C2)cs1` (stereo not given), for which, in assay [9], the AC50 is 0.479 µM (active).

Consider `COc1ccccc1N1CCN(S(=O)(=O)c2cccc(F)c2)CC1`, for which the AC50 in assay [9] is 28.8 µM (active).

Take `NC(=O)NC(CC(=O)NNC(=O)c1ccccn1)c1ccccc1Cl` (stereo not given): the IC50 in assay [2] was > 20 µM (inactive).

As to `O=C(Nc1cc(N2CCCCC2)ncn1)c1ccc(F)cc1`, the EC50 was > 120 µM (not active) in assay [10], 17.3 µM (active) in [11] and 14.1 µM (active) in assay [12].

With `CCC1(C)NC(=O)N(CC(=O)N2CCC(Cc3ccccc3)CC2)C1=O` (stereo not given), the IC50 in assay [2] is > 20 µM (inactive).

Consider `O=C(O)c1ccccc1N=N/C(=N/Nc1cc(S(=O)(=O)O)ccc1O)c1ccccc1`, for which, in [18], the AC50 was > 20 µM (inactive). Further, the figures for the IC50 in assay [19] and in [7] were 19.1 µM (active) and 21.9 µM (active), respectively.

Regarding `CCN(CC)CCOc1ccc(/C(=C(/Cl)c2ccccc2)c2ccccc2)cc1` [ENCLOMIPHENE], the IC50 in assay [2] is > 20 µM (inactive). Also, the AC50 in assay [20] was 1.6 µM (active).

`Cc1nc2ccccc2c(=O)n1NC(=O)/C=C/c1ccc(Br)cc1`: the IC50 in [2] is > 20 µM (inactive).

Regarding `O=C(/C=C/c1ccccc1Cl)c1ccc[nH]1`, the figures for the EC50 in [10], in [11] and in assay [12] were 44.6 µM (active), 24.3 µM (active) and 38.9 µM (active), respectively.

As to `CCCCCCNc1c([N+](=O)[O-])cc(C)cc1[N+](=O)[O-]`, the AC50 in assay [18] was > 20 µM (inactive).

As for `O=C1c2ccccc2C(=O)c2c1cccc2N1CCN(Cc2ccccc2)CC1`, the IC50 in [7] was 7.08 µM (active).

Consider `O=C(O)c1cc(N/N=C/c2cccs2)ccc1Cl`, for which the results for the EC50 in [10], in assay [11] and in assay [12] were 19 µM (active), 0.632 µM (active) and 3.38 µM (active), respectively.

Take `CC(C)(C)NC(=O)C(c1ccncc1)N(Cc1ccco1)C(=O)c1ccc(-c2ccccc2)[nH]1` (stereo not given): the results for the EC50 in [10], in assay [11] and in [12] were 8.7 µM (active), > 30 µM (not active) and 15.2 µM (active), respectively.

On to `NC1=NC[C@H](Cc2ccc(O)cc2)N1CCc1cc(C(F)(F)F)cc(C(F)(F)F)c1`, for which, in assay [2], the IC50 is > 20 µM (inactive).

For `O=C(CSc1nc(O)c(Cc2ccccc2)c(O)n1)Nc1nnc(SCc2ccccc2)s1`, the values for the IC50 in assay [21], in assay [19] and in [22] were > 66 µM (inactive), 43.3 µM (active) and > 66 µM (inactive), respectively.

In the case of `O=C(O)c1cc([N+](=O)[O-])c(NCCC2=CCCCC2)c([N+](=O)[O-])c1`, the EC50 in [23] is > 260 µM (inactive). Moreover, the IC50 in assay [19] was 72.8 µM (active).

Consider `CCOC(=O)N1CCN(C(=O)CCN2C(=O)/C(=C\c3ccccc3OC)SC2=S)CC1`, for which, in assay [17], the cytotoxic concentration (CC50) is > 25 µM (active).

The values are drawn from ChEMBL document CHEMBL1201862, “PubChem BioAssay data set” (2004).
